Measurements published in ChEMBL document CHEMBL1152450 (J Med Chem, 2009).

Tested on: not listed separately
Assay: Inhibition of SARS coronavirus PLpro residues 1541-1855 expressed in Escherichia coli
Set-up: species or system Severe acute respiratory syndrome-related coronavirus
Conditions: not given; call rule not given here
For `C[C@@H](NC(=O)c1ccccc1O)c1ccc2ccccc2c1`, the IC50 was “Not Active”. In the case of `C[C@@H](NC(=O)c1ccc(NC(=O)OC(C)(C)C)cc1)c1ccc2ccccc2c1`, the IC50 is reported as “Not Active”. In the case of `Cc1ccccc1C(=O)NC(c1ccccc1)c1ccc2ccccc2c1` (racemic), the IC50 is reported as “Not Active”. For `CCC(NC(=O)c1ccccc1C)c1ccc2ccccc2c1` (racemic), the IC50 was “Not Active”.

Tested on: SARS-CoV
Assay: Antiviral activity against SARS coronavirus in african green monkey Vero E6 cells assessed as inhibition of replication after 48 hrs
Format: functional, organism-based, Severe acute respiratory syndrome-related coronavirus
Conditions: Severe acute respiratory syndrome-related coronavirus, Vero, 48 h; read-out: EC50
Compound `Cc1ccc(CN)cc1C(=O)N[C@H](C)c1cccc2ccccc12` has an EC50 of 6 µM. `CNCc1ccc(C)c(C(=O)N[C@H](C)c2cccc3ccccc23)c1` gave an EC50 of 5.2 µM.

Same assay, conditions: vero
For `Cc1ccccc1C(=O)NC(C)c1ccc2ccccc2c1` (racemic), the EC50 was “Not Active”. With `Cc1cccc(C(=O)N[C@H](C)c2ccc3ccccc3c2)c1` the EC50 was “Not Active”. In the case of `Cc1ccccc1C(=O)N[C@H](C)c1ccc2ccccc2c1`, the EC50 is reported as “Not Active”. In the case of `Cc1ccc(CNC(=O)OC(C)(C)C)cc1C(=O)N[C@H](C)c1cccc2ccccc12`, the EC50 is reported as “Not Active”. For `Cc1ccc(N)cc1C(=O)NC(C)(C)c1cccc2ccccc12`, the EC50 was “Not Active”.
